Data on two molecules can be found in patent US12570638B2, “Fused imidazole derivatives as AHR antagonists” (Sail Biomedicines, Inc., priority 2020, dated 2026).

pIC50: −log10 of the molar value.

Series [1] can be described thus: Hepatocyte Stability Assay, human. Conditions: cryopreserved hepatocytes, read-out: Human hepatocyte clearance. It is filed as in vitro ADME. The method, then:
Preparation of working solutions: 10 mM stock solutions of test compound and positive control were prepared in DMSO. In separate conical tubes, the 10 mM solution of test compound and the positive control were diluted to 100 μM by combining 198 μL of 50% acetonitrile/50% water and 2 μL of 10 mM stock.
Preparation of Hepatocytes: Incubation medium (William's E Medium supplemented with GlutaMAX) and hepatocyte thawing medium were placed in a 37° C. water bath and allowed warming for at least 15 minutes prior to use. A vial of cryopreserved hepatocytes was transferred from storage, ensuring that vials remained at cryogenic temperatures until thawing process ensued. Cells were thawed by placing the vial in a 37° C. water bath and gently shaking the vials for 2 minutes. […] Using an AO/PI Staining, cells were counted and the viable cell density was determined. Cells with poor viability (<75% viability) were determined to be not acceptable for use. […]
Data Analysis: All calculations were carried out using Microsoft Excel. Peak areas were determined from extracted ion chromatograms. In vitro half-life (t1/2) of parent compound was determined by regression analysis of the percent parent disappearance vs. time curve.
The in vitro half-life (in vitro t1/2) was determined from the slope value: in vitro t1/2=0.693/k […]

Series [2] addresses T1, AHR (Homo sapiens, UniProt P35869).
T1 construct: other cell line with a DRE-luciferase reporter stably transfected; endogenous in cells; host or cells: Human HepG2 liver carcinoma AhR-Lucia reporter cells
T1 sequence (P35869 11-848): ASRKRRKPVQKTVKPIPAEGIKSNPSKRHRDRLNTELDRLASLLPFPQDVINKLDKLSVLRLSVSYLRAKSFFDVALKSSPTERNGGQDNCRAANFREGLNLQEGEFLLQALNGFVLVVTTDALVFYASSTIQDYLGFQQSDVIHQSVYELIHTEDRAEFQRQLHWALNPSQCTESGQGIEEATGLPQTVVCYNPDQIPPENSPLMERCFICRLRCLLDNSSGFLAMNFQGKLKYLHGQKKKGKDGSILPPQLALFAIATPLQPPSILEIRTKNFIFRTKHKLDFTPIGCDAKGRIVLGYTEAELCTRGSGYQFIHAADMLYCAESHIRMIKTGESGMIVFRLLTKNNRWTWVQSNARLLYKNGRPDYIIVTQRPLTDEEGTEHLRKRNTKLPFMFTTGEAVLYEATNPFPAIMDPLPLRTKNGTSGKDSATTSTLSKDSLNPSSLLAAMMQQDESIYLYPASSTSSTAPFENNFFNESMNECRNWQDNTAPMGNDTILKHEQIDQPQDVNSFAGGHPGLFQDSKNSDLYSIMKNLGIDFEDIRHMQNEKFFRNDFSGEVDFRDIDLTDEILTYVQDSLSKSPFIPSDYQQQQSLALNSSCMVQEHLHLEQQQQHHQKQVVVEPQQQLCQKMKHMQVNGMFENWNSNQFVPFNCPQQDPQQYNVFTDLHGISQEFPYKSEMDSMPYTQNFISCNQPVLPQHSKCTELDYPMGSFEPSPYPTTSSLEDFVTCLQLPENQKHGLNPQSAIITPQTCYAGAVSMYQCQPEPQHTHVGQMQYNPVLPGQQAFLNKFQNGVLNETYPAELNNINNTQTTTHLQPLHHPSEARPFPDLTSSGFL
In words: DRE-Luciferase Reporter Assay (HepG2 AhR-Lucia reporter cells). It is filed as cell-based. The settings on record: luciferase activity with AHR activating ligand at EC50, read-out: HepG2-Luc IC50. An excerpt:
AHR binds to Dioxin Responsive Elements (DRE) upstream of genes that it activates. One measure of AHR activity is activation of a reporter gene, such as luciferase, downstream of one or multiple DRE elements. Luciferase activity will reflect activation and inhibition of AHR in the cells expressing his reporter. 20000 Human HepG2 liver carcinoma—AhR-Lucia reporter cells or Human HT29 colon adenocarcinoma—AhR reporter cells or other cell line with a DRE-luciferase reporter stably transfected were plated in Eagle's Minimal Essential Medium, 10% heat-inactivated FBS, 1× non-essential amino acids Pen-Strep (10,000 U/mL) and Normocin (100 ug/mL) in plates (96-well, 384-well or other plates) and incubated overnight at 37° C. in a CO2 incubator and treated with and without AhR antagonists at a log dilution starting at 100 uM.
After 1 hr that cells were plated an AHR activating ligand, such as TCDD, kynurenine, ITE (2-(1H-indole-3-ylcarbonyl)-4-thiazolecarboxylic methyl ester), VAF347, BNF (beta-naphthoflavone), FICZ (6-formylindolo(3,2-b) carbazole) or other AHR ligands at their specific EC50 concentration, were added to the cells with or without AHR antagonist.
Cells were incubated for 24 or 48 hours or another time point and then, supernatant was analyzed for determination of luciferase activity as a read-out of the AHR activation or inhibition. Luciferase was measured with the commercial kit QUANTI-Luc™ assay solution kit from Invivogen following the manufacturer's instructions.
The level of luciferase with only agonist ligand added was the maximum signal while the luciferase with […] was the minimum signal. IC50 values were determined as the concentration which inhibits half of the luciferase activity.
For orientation: In a reporter assay the amount or activity of a reporter protein is the signal.

A word on the pIC50: it is the negative decadic logarithm of the IC50, by convention in mol/L.

Take `Cn1nccc1C(=O)Nc1ccc2nc(-c3ccccc3C(F)(F)F)[nH]c2c1` [A, 1-methyl-N-(2-(2-(trifluoromethyl)phenyl)-1H-benzo[d]imidazol-6-yl)-1H-pyrazole-5-carboxamide]: the CLint scaled at 1 μM in series [1] is under 20 mL/min/kg. The pIC50 in series [2] is 6.30 to 7.00.
With `Cn1ncnc1C(=O)Nc1ccc2nc(-c3ccccc3C(F)(F)F)[nH]c2c1` [Compound H, 1-methyl-N-(2-(2-(trifluoromethyl)phenyl)-1H-benzo[d]imidazol-6-yl)-1H-1,2,4-triazole-5-carboxamide], in series [1], the CLint scaled at 1 μM is under 20 mL/min/kg. Also, the pIC50 in series [2] was over 7.00.
